Reference: patent US20210038607A1, “OXADIAZOLYLTHIOPHENE DERIVATIVES USEFUL AS HISTONE DEACETYLASE INHIBITORS” (Karus Therapeutics Limited, priority 2018, published 2021)

Test system: acetylated α-tubulin in A549 lung adenocarcinoma cells
Assay: Acetylated α-tubulin in-cell western (ICW) assay
Format: cell-based
Conditions: Homo sapiens, 16 h exposure, relative to 40 μM scriptaid positive control, read-out: EC50 Ac-α-tubulin, A549 cells
Protocol: Acetylated α-Tubulin and Histone H3 in-Cell Western (ICW) Assays
A549 cells were maintained in DMEM (Life Technologies)+10% FBS+2 mM glutamine & penicillin (10 μg/mL) and streptomycin ([…]. 10,000 A549 cells per well were plated into 96 well tissue culture plates (Corning) and incubated at 37° C. overnight in a humidified atmosphere containing 5% CO2 prior to addition of compounds. Compounds (dissolved in 100% DMSO) were diluted into cell culture media at 2× final assay concentration. 2× compound or DMSO (negative control) were added to cells (final DMSO concentration 0.4%). Untreated control wells received media. For acetylated α-tubulin assays, 40 μM scriptaid was used as a positive control. For acetylated histone H3 assays, 40 μM Trichostatin A (TSA) was used as a positive control. Cells were exposed to compound at 37° C. in a humidified atmosphere containing 5% CO2 for 16 h.
Measurement of the impact of compounds on levels of acetylated α-tubulin and histone H3 was performed using specific antibodies and near-infrared immunofluorescent dyes. Briefly, media was removed from wells of assay plates. Cells were washed once with PBS and fixed in 3.7% formaldehyde PBS solution at room temperature for 20 min. Cells were then permeabilised by washing 5 times in 0.1% triton-X-100 PBS at room temperature with gentle agitation for 5 min per wash. Non-specific antibody staining was blocked by the addition of Odyssey blocking buffer (Li-Cor) for 1.5 h at room temperature with gentle agitation. Cells were then incubated with primary antibody (mouse monoclonal anti-acetylated α-tubulin (clone 6-11B-1), Sigma or rabbit polyclonal anti-acetylated histone H3, Millipore) diluted in Odyssey blocking buffer at 4° C. with gentle shaking overnight (no antibody control and secondary antibody only wells were incubated with Odyssey blocking buffer only). Cells were washed five times with 0.1% tween PBS and labelled with secondary antibody (IR dye 800CW-conjugated goat anti mouse IgG or -goat anti rabbit IgG, Li-Cor) and cell stains Sapphire700 (Li-Cor) and Draq5 (Biostatus) diluted in Odyssey blocking buffer at room temperature in the dark with gentle shaking for 1 h (no antibody control wells were incubated with Odyssey blocking buffer only and secondary antibody only with diluted secondary antibody but no cell stains). Cells were washed with 0.1% Tween PBS five times and scanned using a Li-Cor Odyssey SA plate reader in 700 and 800 nm channels. Acetylated α-tubulin or histone H3 signal was normalised to cell number using the cell stain signal. Percentage increase in acetylated α-tubulin or histone H3 after compound treatment over the mean of DMSO treated controls, relative to scriptaid and TSA positive controls, respectively was calculated. EC50 values were calculated using GraphPad Prism software and nonlinear regression with 0% bottom and 100% top constraints.

| SMILES | EC50 [nM] |
| --- | --- |
| FC(F)(F)c1cnnc(N(Cc2ccc(-c3noc(C(F)(F)F)n3)s2)c2cnccn2)c1 [Example EF, N-(Pyrazin-2-yl)-5-(trifluoromethyl)-N-({5-[5-(trifluoromethyl)-1,2,4-oxadiazol-3-yl]thiophen-2-yl}methyl)pyridazin-3-amine] | 1000 to 10000 |
| [O-][S+]1CCN(Cc2ccc(N(Cc3ccc(-c4noc(C(F)(F)F)n4)s3)c3cnccn3)nn2)CC1 [Example FO, 4-({6-[(Pyrazin-2-yl)({5-[5-(trifluoromethyl)-1,2,4-oxadiazol-3-yl]thiophen-2-yl}methyl)amino]pyridazin-3-yl}methyl)-1lambda4-thiomorpholin-1-one] | ≤ 1000 |
| NC(=O)c1cnnc(N(Cc2ccc(-c3noc(C(F)(F)F)n3)s2)c2cnccn2)c1 [Example DX, 6-[(Pyrazin-2-yl)({5-[5-(trifluoromethyl)-1,2,4-oxadiazol-3-yl]thiophen-2-yl}methyl)amino]pyridazine-4-carboxamide] | ≤ 1000 |
| O=C(c1cnnc(N(Cc2ccc(-c3noc(C(F)(F)F)n3)s2)c2cnccn2)c1)N1CCOCC1 [Example EB, 5-(Morpholine-4-carbonyl)-N-(pyrazin-2-yl)-N-({5-[5-(trifluoromethyl)-1,2,4-oxadiazol-3-yl]thiophen-2-yl}methyl)pyridazin-3-amine] | ≤ 1000 |
| Cc1cnc(N(Cc2ccc(-c3noc(C(F)(F)F)n3)s2)c2cnccn2)cn1 [Example BH, 5-Methyl-N-(pyrazin-2-yl)-N-({5-[5-(trifluoromethyl)-1,2,4-oxadiazol-3-yl]thiophen-2-yl}methyl)pyrazin-2-amine] | 1000 to 10000 |
| O=C(c1ccc(N(Cc2ccc(-c3noc(C(F)(F)F)n3)s2)c2cnccn2)nn1)N1CCOCC1 [Example DS, 6-(Morpholine-4-carbonyl)-N-(pyrazin-2-yl)-N-({5-[5-(trifluoromethyl)-1,2,4-oxadiazol-3-yl]thiophen-2-yl}methyl)pyridazin-3-amine] | ≤ 1000 |
| O=C(O)c1cnnc(N(Cc2ccc(-c3noc(C(F)(F)F)n3)s2)c2cnccn2)c1 [Example DW, 6-[(Pyrazin-2-yl)({5-[5-(trifluoromethyl)-1,2,4-oxadiazol-3-yl]thiophen-2-yl}methyl)amino]pyridazine-4-carboxylic acid] | ≥ 10000 |
| FC(F)(F)c1nc(-c2ccc(CN(c3cnccn3)c3cnccn3)s2)no1 [Example BA, N-(Pyrazin-2-yl)-N-({5-[5-(trifluoromethyl)-1,2,4-oxadiazol-3-yl]thiophen-2-yl}methyl)pyrazin-2-amine] | ≤ 1000 |
| NC(=O)c1ccc(N(Cc2ccc(-c3noc(C(F)(F)F)n3)s2)c2cnccn2)nn1 [Example DQ, 6-[(Pyrazin-2-yl)({5-[5-(trifluoromethyl)-1,2,4-oxadiazol-3-yl]thiophen-2-yl}methyl)amino]pyridazine-3-carboxamide] | ≤ 1000 |
| FC(F)(F)c1cnnc(N(Cc2ccc(-c3noc(C(F)(F)F)n3)s2)c2cccnn2)c1 [Example ER, N-(Pyridazin-3-yl)-5-(trifluoromethyl)-N-({5-[5-(trifluoromethyl)-1,2,4-oxadiazol-3-yl]thiophen-2-yl}methyl)pyridazin-3-amine] | ≥ 10000 |

Results, then the molecule that gave them:

| EC50 [nM] | SMILES |
| --- | --- |
| ≤ 1000 | COC1(C(F)(F)F)CN(C(=O)c2cnnc(N(Cc3ccc(-c4noc(C(F)(F)F)n4)s3)c3cnccn3)c2)C1 [Example GL, 5-[3-Methoxy-3-(trifluoromethyl)azetidine-1-carbonyl]-N-(pyrazin-2-yl)-N-({5-[5-(trifluoromethyl)-1,2,4-oxadiazol-3-yl]thiophen-2-yl}methyl)pyridazin-3-amine] |
| ≤ 1000 | O=C(c1cnnc(N(Cc2ccc(-c3noc(C(F)(F)F)n3)s2)c2cnccn2)c1)N1CC[S+]([O-])CC1 [Example FU, 4-{6-[(Pyrazin-2-yl)({5-[5-(trifluoromethyl)-1,2,4-oxadiazol-3-yl]thiophen-2-yl}methyl)amino]pyridazine-4-carbonyl}-1lambda4-thiomorpholin-1-one] |
| ≤ 1000 | O=C(c1ccc(N(Cc2ccc(-c3noc(C(F)(F)F)n3)s2)c2cnccn2)nn1)N1CCC2(COC2)C1 [Example FJ, 6-{2-Oxa-6-azaspiro[3.4]octane-6-carbonyl}-N-(pyrazin-2-yl)-N-({5-[5-(trifluoromethyl)-1,2,4-oxadiazol-3-yl]thiophen-2-yl}methyl)pyridazin-3-amine] |
| ≤ 1000 | O=C(c1cnnc(N(Cc2ccc(-c3noc(C(F)(F)F)n3)s2)c2cnccn2)c1)N1CCC12COC2 [Example GF, 5-{6-Oxa-1-azaspiro[3.3]heptane-1-carbonyl}-N-(pyrazin-2-yl)-N-({5-[5-(trifluoromethyl)-1,2,4-oxadiazol-3-yl]thiophen-2-yl}methyl)pyridazin-3-amine] |
| ≤ 1000 | O=C(c1cnnc(N(Cc2ccc(-c3noc(C(F)(F)F)n3)s2)c2cnccn2)c1)N1CC(C(F)(F)F)C1 [Example GJ, N-(Pyrazin-2-yl)-N-({5-[5-(trifluoromethyl)-1,2,4-oxadiazol-3-yl]thiophen-2-yl}methyl)-5-[3-(trifluoromethyl)azetidine-1-carbonyl]pyridazin-3-amine] |
| 1000 to 10000 | O=C(c1nccnc1N(Cc1ccc(-c2noc(C(F)(F)F)n2)s1)c1cnccn1)N1CCC1 [Example GP, 3-(Azetidine-1-carbonyl)-N-(pyrazin-2-yl)-N-({5-[5-(trifluoromethyl)-1,2,4-oxadiazol-3-yl]thiophen-2-yl}methyl)pyrazin-2-amine] |
| ≤ 1000 | O=C(c1ccc(N(Cc2ccc(-c3noc(C(F)(F)F)n3)s2)c2cnccn2)nn1)N1CCC1 [Example FF, 6-(Azetidine-1-carbonyl)-N-(pyrazin-2-yl)-N-({5-[5-(trifluoromethyl)-1,2,4-oxadiazol-3-yl]thiophen-2-yl}methyl)pyridazin-3-amine] |
| ≤ 1000 | O=C(c1ccc(N(Cc2ccc(-c3noc(C(F)(F)F)n3)s2)c2cnccn2)nn1)N1CCCC1 [Example FI, N-(Pyrazin-2-yl)-6-(pyrrolidine-1-carbonyl)-N-({5-[5-(trifluoromethyl)-1,2,4-oxadiazol-3-yl]thiophen-2-yl}methyl)pyridazin-3-amine] |
| ≤ 1000 | O=C(c1ccc(N(Cc2ccc(-c3noc(C(F)(F)F)n3)s2)c2cnccn2)nn1)N1CC(O)(C(F)(F)F)C1 [Example FK, 1-{6-[(Pyrazin-2-yl)({5-[5-(trifluoromethyl)-1,2,4-oxadiazol-3-yl]thiophen-2-yl}methyl)amino]pyridazine-3-carbonyl}-3-(trifluoromethyl)azetidin-3-ol] |
| ≤ 1000 | FC(F)(F)c1cnnc(N(Cc2ccc(-c3noc(C(F)(F)F)n3)s2)c2cc(C(F)(F)F)cnn2)c1 [Example EU, 5-(Trifluoromethyl)-N-({5-[5-(trifluoromethyl)-1,2,4-oxadiazol-3-yl]thiophen-2-yl}methyl)-N-[5-(trifluoromethyl)pyridazin-3-yl]pyridazin-3-amine] |
| ≤ 1000 | FC(F)(F)c1nc(-c2ccc(CN(c3cnccn3)c3ccc(CN4CCOCC4)nn3)s2)no1 [Example FN, 6-[(Morpholin-4-yl)methyl]-N-(pyrazin-2-yl)-N-({5-[5-(trifluoromethyl)-1,2,4-oxadiazol-3-yl]thiophen-2-yl}methyl)pyridazin-3-amine] |
| ≥ 10000 | O=C(O)c1cnnc(N(Cc2ccc(-c3noc(C(F)(F)F)n3)s2)c2cc(C(F)(F)F)cnn2)c1 [Example ES, 6-[({5-[5-(Trifluoromethyl)-1,2,4-oxadiazol-3-yl]thiophen-2-yl}methyl)[5-(trifluoromethyl)pyridazin-3-yl]amino]pyridazine-4-carboxylicacid] |
| ≤ 1000 | O=C(c1cnnc(N(Cc2ccc(-c3noc(C(F)(F)F)n3)s2)c2cnccn2)c1)N1CC(C(F)F)C1 [Example GK, 5-[3-(Difluoromethyl)azetidine-1-carbonyl]-N-(pyrazin-2-yl)-N-({5-[5-(trifluoromethyl)-1,2,4-oxadiazol-3-yl]thiophen-2-yl}methyl)pyridazin-3-amine] |
| ≤ 1000 | O=C(c1ccc(N(Cc2ccc(-c3noc(C(F)(F)F)n3)s2)c2cnccn2)nn1)N1CC[S+]([O-])CC1 [Example FD, 4-{6-[(Pyrazin-2-yl)({5-[5-(trifluoromethyl)-1,2,4-oxadiazol-3-yl]thiophen-2-yl}methyl)amino]pyridazine-3-carbonyl}-1lambda4-thiomorpholin-1-one] |
